{"source": "patent US8158621B2", "about": "“Methods of treating or preventing autoimmune diseases with 2,4-pyrimidinediamine compounds” (Rigel Pharmaceuticals, Inc., priority 2002, dated 2012)"}
{"test_system": "Human Jurkat T-cells (clone N)", "assay": "Jurkat T-cell activation (anti-TCR, CD69 upregulation)", "type": "cell-based", "conditions": "not given", "method_in_brief": "(§1)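 Readout is CD69 upregulation by flow cytometry (anti-CD69-APC, 20 min at 4 °C) after 20 h anti-TCR (C305, 500 ng/ml) stimulation at 37 °C.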", "units": {"IC50": "µM"}}
{"smiles": "CNC(=O)CCn1ncc2ccc(Nc3ncc(F)c(Nc4ccc5oc(C(=O)NC)cc5c4)n3)cc21", "note": "[Compound R935297]", "IC50": 5.7}
{"smiles": "CC(C)Oc1ccc(Nc2nc(Nc3ccc4nn(C)cc4c3)ncc2F)cc1", "note": "[Compound R935298]", "IC50": 2.32}
{"smiles": "Cn1cc2cc(Nc3ncc(F)c(Nc4cccc(O)c4)n3)ccc2n1", "note": "[Compound R935299]", "IC50": 0.824}
{"smiles": "Cn1cc2cc(Nc3ncc(F)c(Nc4ccc5c(c4)OCCO5)n3)ccc2n1", "note": "[Compound R935300]", "IC50": 3.38}
{"smiles": "CCOC(=O)CCn1ncc2cc(Nc3ncc(F)c(Nc4ccc5c(c4)OCCO5)n3)ccc21", "note": "[Compound R935301]", "IC50": 2.32}
{"smiles": "OCCCn1ncc2cc(Nc3ncc(F)c(Nc4ccc5c(c4)OCCO5)n3)ccc21", "note": "[Compound R935302]", "IC50": 0.8}
{"smiles": "OCCCn1ncc2cc(Nc3ncc(F)c(Nc4cccc(O)c4)n3)ccc21", "note": "[Compound R935304]", "IC50": 0.497}
{"smiles": "CNC(=O)CCn1ncc2cc(Nc3ncc(F)c(Nc4cccc(O)c4)n3)ccc21", "note": "[Compound R935305]", "IC50": 1.83}
{"smiles": "CC(C)Oc1ccc(Nc2nc(Nc3ccc4c(cnn4CCCO)c3)ncc2F)cc1", "note": "[Compound R935307]", "IC50": 1.41}
{"smiles": "OCCCn1ncc2ccc(Nc3ncc(F)c(Nc4ccc5oc(CO)cc5c4)n3)cc21", "note": "[Compound R935308]", "IC50": 1.27}
{"smiles": "CNC(=O)CCn1ncc2cc(Nc3ncc(F)c(Nc4ccc5c(c4)OCCO5)n3)ccc21", "note": "[Compound R935309]", "IC50": 0.779}
{"smiles": "CNC(=O)CCn1ncc2cc(Nc3ncc(F)c(Nc4ccc(OC(C)C)cc4)n3)ccc21", "note": "[Compound R935310]", "IC50": 0.88}
{"smiles": "COC(=O)c1ccc(Cn2ncc3ccc(Nc4ncc(F)c(Nc5ccc6c(c5)OCCO6)n4)cc32)c(OC)c1", "note": "[Compound R935320]", "IC50": "> 10"}
{"smiles": "COC(=O)c1ccc(Cn2ncc3ccc(Nc4ncc(F)c(Nc5cccc(O)c5)n4)cc32)c(OC)c1", "note": "[Compound R935321]", "IC50": "> 10"}
{"smiles": "COc1cc(C(=O)NS(=O)(=O)c2ccccc2C)ccc1Cn1ncc2ccc(Nc3ncc(F)c(Nc4ccc(OC(C)C)cc4)n3)cc21", "note": "[Compound R935322]", "IC50": "> 10"}
{"smiles": "COc1cc(C(=O)NS(=O)(=O)c2ccccc2C)ccc1Cn1ncc2ccc(Nc3ncc(F)c(Nc4ccc5c(c4)OCCO5)n3)cc21", "note": "[Compound R935323]", "IC50": "> 10"}
{"smiles": "COc1cc(C(=O)NS(=O)(=O)c2ccccc2C)ccc1Cn1ncc2ccc(Nc3ncc(F)c(Nc4cccc(O)c4)n3)cc21", "note": "[Compound R935324]", "IC50": "> 10"}
{"smiles": "COC(=O)c1ccc(Cn2cc3ccc(Nc4ncc(F)c(Nc5ccc6c(c5)OCCO6)n4)cc3n2)c(OC)c1", "note": "[Compound R935336]", "IC50": 2.88}
{"smiles": "COC(=O)c1ccc(Cn2cc3ccc(Nc4ncc(F)c(Nc5cccc(O)c5)n4)cc3n2)c(OC)c1", "note": "[Compound R935337]", "IC50": 2.54}
{"smiles": "COC(=O)c1ccc(Cn2cc3ccc(Nc4ncc(F)c(Nc5ccc(OC(C)C)cc5)n4)cc3n2)c(OC)c1", "note": "[Compound R935338]", "IC50": 5.89}
{"smiles": "COc1cc(C(=O)NS(=O)(=O)c2ccccc2C)ccc1Cn1ncc2cc(Nc3ncc(F)c(Nc4ccc5c(c4)OCCO5)n3)ccc21", "note": "[Compound R935339]", "IC50": "> 10"}
{"smiles": "COc1cc(C(=O)NS(=O)(=O)c2ccccc2C)ccc1Cn1ncc2cc(Nc3ncc(F)c(Nc4cccc(O)c4)n3)ccc21", "note": "[Compound R935340]", "IC50": "> 10"}
{"smiles": "Fc1cnc(Nc2ccc3cn[nH]c3c2)nc1Nc1ccc(OC(F)(F)F)c(Cl)c1", "note": "[Compound R935368]", "IC50": "> 10"}
{"smiles": "COc1ccc(Nc2ncc([N+](=O)[O-])c(Nc3ccc(OC)c(OC)c3)n2)cc1OC", "note": "[Compound R940089]", "IC50": "> 10"}
{"smiles": "CCOc1ccc(Nc2ncc([N+](=O)[O-])c(Nc3ccc(OCC)cc3)n2)cc1", "note": "[Compound R940090]", "IC50": "> 10"}
{"smiles": "CCOC(=O)COc1cccc(Nc2ncc(F)c(Nc3cc(C)c(O)c(C)c3)n2)c1", "note": "[Compound R940253]", "IC50": 17.4}
{"smiles": "Cc1cc(Nc2nc(Nc3cccc(OCC(=O)N4CCOCC4)c3)ncc2F)cc(C)c1O", "note": "[Compound R940254]", "IC50": 3.76}
{"smiles": "Cc1cc(Nc2nc(Nc3cccc(OCCN4CCOCC4)c3)ncc2F)cc(C)c1O", "note": "[Compound R940255]", "IC50": 1.51}
{"smiles": "Cc1cc(Nc2nc(Nc3cccc(OCCN4CCOCC4)c3)ncc2F)cc(C)c1O", "note": "[Compound R940256]", "IC50": 4.75}
{"smiles": "COc1ccc(Nc2nc(NC3CCN(Cc4ccccc4)CC3)ncc2F)cc1OC", "note": "[Compound R940263]", "IC50": 10.1}
{"smiles": "Oc1cccc(Nc2nc(NC3CCN(Cc4ccccc4)CC3)ncc2F)c1", "note": "[Compound R940264]", "IC50": "> 10"}
{"smiles": "Cc1cc(Nc2nc(Nc3cccc(OCC(=O)N4CCOCC4)c3)ncc2F)cc(Cl)c1O", "note": "[Compound R940265]", "IC50": 5.56}
{"smiles": "CCOC(=O)COc1cccc(Nc2nc(Nc3cccc(C(C)(C)C)c3)ncc2F)c1", "note": "[Compound R940266]", "IC50": "> 10"}
{"smiles": "CNC(=O)COc1cccc(Nc2nc(Nc3cccc(C(C)(C)C)c3)ncc2F)c1", "note": "[Compound R940267]", "IC50": "> 10"}
{"smiles": "CCOC(=O)COc1cccc(Nc2ncc(F)c(Nc3cccc(C(C)(C)C)c3)n2)c1", "note": "[Compound R940270]", "IC50": "> 10"}
{"smiles": "CNC(=O)COc1cccc(Nc2ncc(F)c(Nc3cccc(C(C)(C)C)c3)n2)c1", "note": "[Compound R940276]", "IC50": 2.53}
{"smiles": "CC(C)(C)c1cccc(Nc2nc(Nc3cccc(OCC(=O)NCC(O)CO)c3)ncc2F)c1", "note": "(stereo not drawn) [Compound R940277]", "IC50": 1.22}
{"smiles": "CC(C)(C)c1cccc(Nc2nc(Nc3cccc(OCC(=O)O)c3)ncc2F)c1", "note": "[Compound R940280]", "IC50": "> 10"}
{"smiles": "CC(C)(C)c1cccc(Nc2nc(Nc3cccc(OCCO)c3)ncc2F)c1", "note": "[Compound R940282]", "IC50": 6.71}
{"smiles": "CCOC(=O)COc1cccc(Nc2ncc(F)c(Nc3ccc4c(c3)C(=O)OC4)n2)c1", "note": "[Compound R940285]", "IC50": "> 10"}
{"smiles": "CC(C)c1cccc(Nc2nc(Nc3ccc4oc(CO)cc4c3)ncc2F)c1", "note": "[Compound R940286]", "IC50": 4.4}
{"smiles": "CC(C)(C)c1cccc(Nc2nc(Nc3ccc4oc(CO)cc4c3)ncc2F)c1", "note": "[Compound R940287]", "IC50": 6.2}
{"smiles": "CNC(=O)COc1cccc(Nc2ncc(F)c(Nc3cccc(C(C)C)c3)n2)c1", "note": "[Compound R940288]", "IC50": 3.48}
{"smiles": "CC(C)c1cccc(Nc2nc(Nc3cccc(OCCO)c3)ncc2F)c1", "note": "[Compound R940289]", "IC50": 3.65}
{"smiles": "OCCOc1cccc(Nc2ncc(F)c(Nc3ccc(CO)c(CO)c3)n2)c1", "note": "[Compound R940292]", "IC50": 2.78}
{"smiles": "O=C(COc1cccc(Nc2ncc(F)c(Nc3ccc4c(c3)C(=O)OC4)n2)c1)NCC(O)CO", "note": "(stereo not drawn) [Compound R940293]", "IC50": "> 10"}
{"smiles": "COC(=O)c1cc2cc(Nc3ncc(F)c(Nc4ccc5c(c4)C(=O)OC5)n3)ccc2o1", "note": "[Compound R940294]", "IC50": "> 10"}
{"smiles": "CC(C)(C)c1cccc(Nc2nc(Nc3cccc(OCC(=O)NC(CO)CO)c3)ncc2F)c1", "note": "[Compound R940296]", "IC50": 1.23}
{"smiles": "CNC(=O)COc1cccc(Nc2ncc(F)c(Nc3cccc(C(N)=O)c3)n2)c1", "note": "[Compound R940299]", "IC50": 24.9}
{"smiles": "CNC(=O)COc1cccc(Nc2ncc(F)c(Nc3ccc(OC)c(C(=O)OC)c3)n2)c1", "note": "[Compound R940300]", "IC50": 9.28}
{"smiles": "CNC(=O)COc1cccc(Nc2ncc(F)c(Nc3ccc(OC)c(C(=O)NC)c3)n2)c1", "note": "[Compound R940306]", "IC50": 11}
{"smiles": "CC(C)c1cccc(Nc2nc(Nc3cccc(OCC(=O)NC[C@@H](O)CO)c3)ncc2F)c1", "note": "[Compound R940307]", "IC50": 2.06}
{"smiles": "CNC(=O)COc1cccc(Nc2ncc(F)c(Nc3cccc(CN)c3)n2)c1", "note": "[Compound R940309]", "IC50": "> 10"}
{"smiles": "CNC(=O)COc1cccc(Nc2ncc(F)c(Nc3ccc(OC)c(C(=O)NC(C)C)c3)n2)c1", "note": "[Compound R940312]", "IC50": 16.2}
{"smiles": "CNC(=O)COc1cccc(Nc2ncc(F)c(Nc3ccc(OC)c(CN4CCOCC4)c3)n2)c1", "note": "[Compound R940314]", "IC50": 7.03}
{"smiles": "COc1ccc(Nc2nc(Nc3cc(C)c(O)c(Cl)c3)ncc2F)cc1CN1CCOCC1", "note": "[Compound R940316]", "IC50": 4.28}
{"smiles": "CNCc1cccc(Nc2nc(Nc3cccc(OCC(=O)NC)c3)ncc2F)c1", "note": "[Compound R940317]", "IC50": 3.28}
{"smiles": "COc1ccc(Nc2nc(Nc3cc(C)c(O)c(Cl)c3)ncc2F)cc1CN1CCNCC1", "note": "[Compound R940318]", "IC50": 1.39}
{"smiles": "CNC(=O)COc1cccc(Nc2ncc(F)c(Nc3ccc(OC)c(CN(C)C)c3)n2)c1", "note": "[Compound R940321]", "IC50": 3.68}
{"test_system": "Human Jurkat T-cells (clone N)", "assay": "Jurkat T-cell activation (anti-TCR, CD69 upregulation)", "type": "cell-based", "conditions": "Homo sapiens, Jurkat", "method_in_brief": "as §1", "units": {"IC50": "µM"}}
{"smiles": "O=[N+]([O-])c1cnc(Nc2ccc3c(c2)OCCO3)nc1Nc1ccc2c(c1)OCCO2", "note": "[Compound R940095]", "IC50": "> 10"}
{"smiles": "O=[N+]([O-])c1cnc(Nc2ccc3c(c2)OC(F)(F)O3)nc1Nc1ccc2c(c1)OC(F)(F)O2", "note": "[Compound R940100]", "IC50": "> 10"}
{"smiles": "Oc1c(Cl)cc(Nc2ncc(F)c(Nc3cc(Cl)c(O)c(Cl)c3)n2)cc1Cl", "note": "[Compound R940215]", "IC50": "> 10"}
{"smiles": "Cc1c(O)ccc(Nc2ncc(F)c(Nc3ccc(O)c(C)c3C)n2)c1C", "note": "[Compound R940217]", "IC50": "> 10"}
{"smiles": "CC(=O)Nc1ccc(Nc2ncc(F)c(Nc3ccc(NC(C)=O)cc3)n2)cc1", "note": "[Compound R940222]", "IC50": 9.47}
{"smiles": "CC(C)(C)c1cccc(Nc2ncc(F)c(Nc3cccc(O)c3)n2)c1", "note": "[Compound R940257]", "IC50": "> 10"}
{"smiles": "COc1ccc(Nc2nc(Nc3cccc(C(C)(C)C)c3)ncc2F)cc1OC", "note": "[Compound R940260]", "IC50": "> 10"}
{"smiles": "Oc1cccc(Nc2nc(NCCN3CCN(Cc4ccccc4)CC3)ncc2F)c1", "note": "[Compound R940261]", "IC50": 10.9}
{"smiles": "COc1ccc(Nc2nc(NCCN3CCN(Cc4ccccc4)CC3)ncc2F)cc1OC", "note": "[Compound R940262]", "IC50": 6.45}
{"smiles": "Cc1cc(Nc2ncc(F)c(Nc3cccc(C(C)(C)C)c3)n2)cc(Cl)c1O", "note": "[Compound R940271]", "IC50": "> 10"}
{"smiles": "COC(=O)c1cc2cc(Nc3ncc(F)c(Nc4cccc(C(C)(C)C)c4)n3)ccc2o1", "note": "[Compound R940281]", "IC50": "> 10"}
{"smiles": "COC(=O)c1cc2cc(Nc3ncc(F)c(Nc4cccc(C(C)C)c4)n3)ccc2o1", "note": "[Compound R940283]", "IC50": "> 10"}
{"smiles": "CNC(=O)c1cc2cc(Nc3ncc(F)c(Nc4cccc(C(C)(C)C)c4)n3)ccc2o1", "note": "[Compound R940291]", "IC50": 9.45}
{"smiles": "CC(C)c1cccc(Nc2ncc(F)c(Nc3cccc(C(C)C)c3)n2)c1", "note": "[Compound R940297]", "IC50": "> 10"}
{"smiles": "COC(=O)c1cc(Nc2ncc(F)c(Nc3cccc(O)c3)n2)ccc1OC", "note": "[Compound R940301]", "IC50": 1.31}
{"smiles": "CNC(=O)c1cc(Nc2nc(NC)ncc2F)ccc1OC", "note": "[Compound R940304]", "IC50": "> 10"}
